Test results: PubChem BioAssay AID1963977 (Molecular Pharmacology Branch, DTP, NCI, 2024)
Where “and” joins values, the source holds several entries; their conditions need not be identical. Identical values can stand only once.

Tested on: 624824-186-R-J3-PDC multicell spheroids, viability
Test: Anticancer human tumor 624824-186-R-J3-PDC patient-derived colon adenocarcinoma cell line growth inhibition [PI3K]
Conditions: for viability, T/C: stronger effect = lower value
Outline: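 Spheroid viability read-out. Co-cultures contained the tumor line plus HUVEC and human MSCs. Each agent was paired with a PI3K inhibitor (inavolisib, alpelisib, duvelisib, copanlisib) across half-log dilutions starting at clinical Cmax, or at 10 microM when Cmax was unknown.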

[1] = curve of first compound, second compound 0.0316 µM
[2] = curve of first compound, second compound 0.1 µM
[3] = curve of first compound, second compound 0.316 µM
[4] = curve of first compound, second compound 1 µM
[5] = curve of first compound, second compound 3.16 µM
[6] = curve of first compound, second compound 10 µM
[7] = second compound 0.0316 µM, first compound 0.0316 µM
[8] = second compound 0.0316 µM, first compound 0.1 µM
[9] = second compound 0.1 µM, first compound 0.0316 µM
[10] = second compound 0.1 µM, first compound 0.1 µM
[11] = second compound 0.316 µM, first compound 0.0316 µM
[12] = second compound 0.316 µM, first compound 0.1 µM
[13] = second compound 1 µM, first compound 0.0316 µM
[14] = second compound 1 µM, first compound 0.1 µM
[15] = second compound 3.16 µM, first compound 0.0316 µM
[16] = second compound 3.16 µM, first compound 0.1 µM
[17] = second compound 10 µM, first compound 0.0316 µM
[18] = second compound 10 µM, first compound 0.1 µM
[19] = second compound 0.0316 µM, first compound 0.316 µM
[20] = second compound 0.0316 µM, first compound 1 µM
[21] = second compound 0.0316 µM, first compound 3.16 µM
[22] = second compound 0.0316 µM, first compound 10 µM
[23] = second compound 0.1 µM, first compound 0.316 µM
[24] = second compound 0.1 µM, first compound 1 µM
[25] = second compound 0.1 µM, first compound 3.16 µM
[26] = second compound 0.1 µM, first compound 10 µM
[27] = second compound 0.316 µM, first compound 0.316 µM
[28] = second compound 0.316 µM, first compound 1 µM
[29] = second compound 0.316 µM, first compound 3.16 µM
[30] = second compound 0.316 µM, first compound 10 µM
[31] = second compound 1 µM, first compound 0.316 µM
[32] = second compound 1 µM, first compound 1 µM
[33] = second compound 1 µM, first compound 3.16 µM
[34] = second compound 1 µM, first compound 10 µM
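Further: spheroids exposed to agents for seven days before luminescence read.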
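Wherever viability, T/C is given: luminescent signal used as a stand-in for spheroid viability; percent viability relative to DMSO vehicle control wells taken as 100%.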

Cn1ncnc1[C@H]1c2n[nH]c(=O)c3cc(F)cc(c23)N[C@@H]1c1ccc(F)cc1 + Cc1nc(NC(=O)N2CCCC2C(N)=O)sc1-c1ccnc(C(C)(C)C(F)(F)F)c1
IC50 [1]: > 0.1 µM
IC50 [2]: > 0.1 µM
IC50 [3]: > 0.1 µM
IC50 [4]: > 0.1 µM
IC50 [5]: > 0.1 µM
IC50 [6]: > 0.1 µM
viability, T/C (second compound 0.0316 µM, first compound 0.000316 µM): 106%
viability, T/C (second compound 0.0316 µM, first compound 0.001 µM): 106%
viability, T/C (second compound 0.0316 µM, first compound 0.00316 µM): 101%
viability, T/C (second compound 0.0316 µM, first compound 0.01 µM): 108%
viability, T/C [7]: 111%
viability, T/C [8]: 96.7%
viability, T/C (second compound 0.1 µM, first compound 0.000316 µM): 104%
viability, T/C (second compound 0.1 µM, first compound 0.001 µM): 108%
viability, T/C (second compound 0.1 µM, first compound 0.00316 µM): 111%
viability, T/C (second compound 0.1 µM, first compound 0.01 µM): 101%
viability, T/C [9]: 101%
viability, T/C [10]: 102%
viability, T/C (second compound 0.316 µM, first compound 0.000316 µM): 102%
viability, T/C (second compound 0.316 µM, first compound 0.001 µM): 115%
viability, T/C (second compound 0.316 µM, first compound 0.00316 µM): 102%
viability, T/C (second compound 0.316 µM, first compound 0.01 µM): 103%
viability, T/C [11]: 105%
viability, T/C [12]: 98.8%
viability, T/C (second compound 1 µM, first compound 0.000316 µM): 96.6%
viability, T/C (second compound 1 µM, first compound 0.001 µM): 106%
viability, T/C (second compound 1 µM, first compound 0.00316 µM): 110%
viability, T/C (second compound 1 µM, first compound 0.01 µM): 83.9%
viability, T/C [13]: 101%
viability, T/C [14]: 99%
viability, T/C (second compound 3.16 µM, first compound 0.000316 µM): 81%
viability, T/C (second compound 3.16 µM, first compound 0.001 µM): 83%
viability, T/C (second compound 3.16 µM, first compound 0.00316 µM): 90.8%
viability, T/C (second compound 3.16 µM, first compound 0.01 µM): 87%
viability, T/C [15]: 91.8%
viability, T/C [16]: 83.6%
viability, T/C (second compound 10 µM, first compound 0.000316 µM): 70%
viability, T/C (second compound 10 µM, first compound 0.001 µM): 74.3%
viability, T/C (second compound 10 µM, first compound 0.00316 µM): 70.7%
viability, T/C (second compound 10 µM, first compound 0.01 µM): 66.7%
viability, T/C [17]: 67.7%
viability, T/C [18]: 76.9%

Cn1ncnc1[C@H]1c2n[nH]c(=O)c3cc(F)cc(c23)N[C@@H]1c1ccc(F)cc1
viability, T/C (compound 0.000316 µM): 110% [middle of 4 runs]
viability, T/C (compound 0.001 µM): 100% [middle of 4 runs]
viability, T/C (compound 0.01 µM): 99.7% [middle of 4 runs]
viability, T/C (compound 0.0316 µM): 103% (2×) and 93.2% and 95.4%
viability, T/C (compound 0.1 µM): 98.4% [middle of 4 runs]
IC50 (curve of compound): > 0.1 µM

C=CC(=O)N1CCN(c2nc(=O)n(-c3c(C)ccnc3C(C)C)c3nc(-c4c(O)cccc4F)c(F)cc23)C(C)C1 (configuration not stated) + Cc1nc(NC(=O)N2CCCC2C(N)=O)sc1-c1ccnc(C(C)(C)C(F)(F)F)c1
IC50 [1]: > 10 µM
IC50 [2]: > 10 µM
IC50 [3]: > 10 µM
IC50 [4]: > 10 µM
IC50 [5]: > 10 µM
IC50 [6]: > 10 µM
viability, T/C [7]: 103%
viability, T/C [8]: 108%
viability, T/C [19]: 106%
viability, T/C [20]: 94%
viability, T/C [21]: 107%
viability, T/C [22]: 113%
viability, T/C [9]: 112%
viability, T/C [10]: 101%
viability, T/C [23]: 95.5%
viability, T/C [24]: 110%
viability, T/C [25]: 113%
viability, T/C [26]: 105%
viability, T/C [11]: 109%
viability, T/C [12]: 109%
viability, T/C [27]: 116%
viability, T/C [28]: 106%
viability, T/C [29]: 103%
viability, T/C [30]: 103%
viability, T/C [13]: 103%
viability, T/C [14]: 108%
viability, T/C [31]: 104%
viability, T/C [32]: 116%
viability, T/C [33]: 105%
viability, T/C [34]: 101%
viability, T/C [15]: 83.6%
viability, T/C [16]: 92.8%
viability, T/C (second compound 3.16 µM, first compound 0.316 µM): 90.9%
viability, T/C (second compound 3.16 µM, first compound 1 µM): 78.7%
viability, T/C (second compound 3.16 µM, first compound 3.16 µM): 95.6%
viability, T/C (second compound 3.16 µM, first compound 10 µM): 78.5%
viability, T/C [17]: 68.4%
viability, T/C [18]: 69%
viability, T/C (second compound 10 µM, first compound 0.316 µM): 71.2%
viability, T/C (second compound 10 µM, first compound 1 µM): 76.1%
viability, T/C (second compound 10 µM, first compound 3.16 µM): 69.8%
viability, T/C (second compound 10 µM, first compound 10 µM): 65.3%

Cn1ncc(Cl)c1-c1cc(C(=O)NC(CN)Cc2cccc(F)c2)sc1Cl (configuration not stated) + CC(Nc1ccc2c(c1)OCCn1cc(N3C(=O)OCC3C(F)F)nc1-2)C(N)=O
IC50 (curve of first compound, second compound 0.00316 µM): > 10 µM
IC50 (curve of first compound, second compound 0.01 µM): > 10 µM
IC50 [1]: > 10 µM
IC50 [2]: > 10 µM
IC50 [3]: > 10 µM
IC50 [4]: 3.12 µM
viability, T/C (second compound 0.00316 µM, first compound 0.0316 µM): 111%
viability, T/C (second compound 0.00316 µM, first compound 0.1 µM): 105%
viability, T/C (second compound 0.00316 µM, first compound 0.316 µM): 103%
viability, T/C (second compound 0.00316 µM, first compound 1 µM): 74.1%
viability, T/C (second compound 0.00316 µM, first compound 3.16 µM): 55.4%
viability, T/C (second compound 0.00316 µM, first compound 10 µM): 80%
viability, T/C (second compound 0.01 µM, first compound 0.0316 µM): 103%
viability, T/C (second compound 0.01 µM, first compound 0.1 µM): 99.3%
viability, T/C (second compound 0.01 µM, first compound 0.316 µM): 92.9%
viability, T/C (second compound 0.01 µM, first compound 1 µM): 70%
viability, T/C (second compound 0.01 µM, first compound 3.16 µM): 52.4%
viability, T/C (second compound 0.01 µM, first compound 10 µM): 84%
viability, T/C [7]: 104%
viability, T/C [8]: 99.4%
viability, T/C [19]: 90.2%
viability, T/C [20]: 66.7%
viability, T/C [21]: 49.5%
viability, T/C [22]: 83.1%
viability, T/C [9]: 103%
viability, T/C [10]: 97.3%
viability, T/C [23]: 91.4%
viability, T/C [24]: 69.2%
viability, T/C [25]: 51.4%
viability, T/C [26]: 79.2%
viability, T/C [11]: 100%
viability, T/C [12]: 93%
viability, T/C [27]: 88.5%
viability, T/C [28]: 64.1%
viability, T/C [29]: 42%
viability, T/C [30]: 62.4%
viability, T/C [13]: 90.1%
viability, T/C [14]: 90.6%
viability, T/C [31]: 76.7%
viability, T/C [32]: 63.7%
viability, T/C [33]: 44.3%
viability, T/C [34]: 50.9%
